# Earlier results as cited in patent publication US20060040940A1, “Imidazopyridines pyrimidines and triazines for enhancing cognition as gaba-a-alphas 5 receoptor subtype ligands” (priority 2001, published 2006).
# Legend:
# benzodiazepine receptor [1] = conditions: background statement
# benzodiazepine receptor [2] = conditions: reported in Psychobiology, 21:101-108
structure (smiles),measurement,setting,value
COC(=O)c1cc2c(cn1)[nH]c1ccccc12 [β-CCM],proconvulsant effect,benzodiazepine receptor [1],proconvulsant
same,spatial learning in the Morris watermaze,benzodiazepine receptor [2],enhanced spatial learning
